Experimental data from article PMC9104438, “Application of a Fluorescence Anisotropy-Based Assay to Quantify Transglutaminase 2 Activity in Cell Lysates” (International Journal of Molecular Sciences, 2022).

Assays:
Experiment in all cases: FA-based assay, characterization of irreversible inhibitors
hTGase 1 = target: T1, hTGase 1 (Homo sapiens, UniProt P22735)
T1 sequence (P22735 1-817): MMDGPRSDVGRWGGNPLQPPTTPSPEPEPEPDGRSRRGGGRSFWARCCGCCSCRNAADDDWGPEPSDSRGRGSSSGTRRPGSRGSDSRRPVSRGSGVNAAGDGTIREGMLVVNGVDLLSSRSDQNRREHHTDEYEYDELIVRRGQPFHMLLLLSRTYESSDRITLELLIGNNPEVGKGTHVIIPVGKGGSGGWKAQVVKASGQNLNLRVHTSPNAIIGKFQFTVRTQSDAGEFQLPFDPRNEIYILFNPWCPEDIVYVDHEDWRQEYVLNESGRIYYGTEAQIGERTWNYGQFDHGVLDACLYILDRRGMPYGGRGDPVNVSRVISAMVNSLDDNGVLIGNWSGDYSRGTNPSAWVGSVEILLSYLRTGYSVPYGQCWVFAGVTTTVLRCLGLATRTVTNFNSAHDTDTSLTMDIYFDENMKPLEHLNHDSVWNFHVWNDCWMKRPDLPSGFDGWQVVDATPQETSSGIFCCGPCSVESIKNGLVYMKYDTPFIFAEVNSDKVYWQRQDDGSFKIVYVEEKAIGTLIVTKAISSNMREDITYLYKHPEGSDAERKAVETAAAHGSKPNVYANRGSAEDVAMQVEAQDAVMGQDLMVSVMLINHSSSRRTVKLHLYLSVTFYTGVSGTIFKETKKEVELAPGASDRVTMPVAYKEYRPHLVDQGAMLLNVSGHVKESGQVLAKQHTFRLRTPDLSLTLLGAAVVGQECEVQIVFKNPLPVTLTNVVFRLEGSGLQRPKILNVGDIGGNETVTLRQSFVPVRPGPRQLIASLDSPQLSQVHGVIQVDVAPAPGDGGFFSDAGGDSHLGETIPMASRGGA

hTGase 3 = target: T2, hTGase 3 (Homo sapiens, UniProt Q08188)
T2 sequence (Q08188 2-467 limits assumed): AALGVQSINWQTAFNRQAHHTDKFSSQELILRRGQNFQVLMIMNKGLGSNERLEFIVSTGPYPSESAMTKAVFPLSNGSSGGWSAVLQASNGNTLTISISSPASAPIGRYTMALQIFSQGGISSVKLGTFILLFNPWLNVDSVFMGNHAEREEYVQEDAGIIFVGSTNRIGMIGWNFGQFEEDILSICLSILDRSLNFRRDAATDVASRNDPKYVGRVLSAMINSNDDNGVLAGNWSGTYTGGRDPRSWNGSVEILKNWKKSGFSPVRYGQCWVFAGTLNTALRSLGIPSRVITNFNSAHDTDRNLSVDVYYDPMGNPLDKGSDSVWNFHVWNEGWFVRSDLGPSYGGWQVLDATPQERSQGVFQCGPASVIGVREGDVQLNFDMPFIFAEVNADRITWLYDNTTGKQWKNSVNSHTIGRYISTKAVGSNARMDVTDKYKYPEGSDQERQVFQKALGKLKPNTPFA
T2 sequence (Q08188 468-693 partner limits assumed): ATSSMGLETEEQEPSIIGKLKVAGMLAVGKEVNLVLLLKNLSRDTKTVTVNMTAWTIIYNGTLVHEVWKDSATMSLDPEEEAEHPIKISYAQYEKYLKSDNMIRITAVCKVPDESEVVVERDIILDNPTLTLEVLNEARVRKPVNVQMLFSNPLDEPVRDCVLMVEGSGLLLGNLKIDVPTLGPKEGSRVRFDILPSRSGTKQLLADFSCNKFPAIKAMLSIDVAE

hTGase 6 = target: T3, hTGase 6 (Homo sapiens, UniProt O95932)
T3 sequence (O95932 1-706): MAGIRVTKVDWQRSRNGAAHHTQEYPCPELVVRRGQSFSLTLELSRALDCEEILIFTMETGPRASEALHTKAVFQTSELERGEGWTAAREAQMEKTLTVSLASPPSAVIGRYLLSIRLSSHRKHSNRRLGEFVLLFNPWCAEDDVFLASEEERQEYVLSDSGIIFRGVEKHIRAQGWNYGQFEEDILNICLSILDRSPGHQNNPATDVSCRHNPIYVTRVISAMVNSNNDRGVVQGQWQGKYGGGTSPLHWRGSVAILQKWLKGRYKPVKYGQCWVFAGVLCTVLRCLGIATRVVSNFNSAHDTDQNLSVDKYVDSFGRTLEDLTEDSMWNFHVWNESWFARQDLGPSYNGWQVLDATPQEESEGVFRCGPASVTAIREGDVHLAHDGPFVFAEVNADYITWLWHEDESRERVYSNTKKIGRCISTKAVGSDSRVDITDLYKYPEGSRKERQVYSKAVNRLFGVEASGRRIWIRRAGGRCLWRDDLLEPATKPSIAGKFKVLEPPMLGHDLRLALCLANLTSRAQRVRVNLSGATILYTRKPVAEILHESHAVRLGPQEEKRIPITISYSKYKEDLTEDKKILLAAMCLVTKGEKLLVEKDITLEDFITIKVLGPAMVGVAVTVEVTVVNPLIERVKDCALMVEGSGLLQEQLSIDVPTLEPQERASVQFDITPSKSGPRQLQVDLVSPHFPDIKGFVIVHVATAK

hFXIIIa = target: T4, hFXIIIa (Homo sapiens, UniProt P00488)
T4 sequence (P00488 39-732 limits assumed): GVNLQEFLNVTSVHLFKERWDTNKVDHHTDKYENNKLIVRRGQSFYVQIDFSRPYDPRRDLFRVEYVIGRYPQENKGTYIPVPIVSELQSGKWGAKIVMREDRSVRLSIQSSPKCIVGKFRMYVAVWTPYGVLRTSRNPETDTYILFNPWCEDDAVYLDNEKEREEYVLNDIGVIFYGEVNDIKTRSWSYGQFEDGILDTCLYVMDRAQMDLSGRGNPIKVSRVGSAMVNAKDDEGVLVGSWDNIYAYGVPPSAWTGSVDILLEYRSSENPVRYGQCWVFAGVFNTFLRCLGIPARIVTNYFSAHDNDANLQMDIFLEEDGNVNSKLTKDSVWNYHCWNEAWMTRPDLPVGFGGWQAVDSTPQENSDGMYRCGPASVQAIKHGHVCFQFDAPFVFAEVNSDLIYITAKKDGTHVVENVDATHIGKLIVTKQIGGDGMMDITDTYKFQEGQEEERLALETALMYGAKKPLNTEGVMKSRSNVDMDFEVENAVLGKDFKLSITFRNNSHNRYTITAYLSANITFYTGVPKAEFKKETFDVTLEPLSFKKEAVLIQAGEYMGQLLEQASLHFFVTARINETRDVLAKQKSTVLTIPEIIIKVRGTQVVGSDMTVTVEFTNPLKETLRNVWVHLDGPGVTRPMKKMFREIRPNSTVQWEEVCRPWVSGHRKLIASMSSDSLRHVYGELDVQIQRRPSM

SMILES	IC50 (hTGase 1)	IC50 (hTGase 3)	IC50 (hTGase 6)	IC50 (hFXIIIa)
C=CC(=O)NCCCC[C@H](NC(=O)Cc1ccccc1)C(=O)N1CCN(c2cccc(C)n2)CC1 [Compound 1]	> 30 µM	> 30 µM	> 30 µM	> 30 µM
C=CC(=O)NCCCC[C@H](NC(=O)Cc1ccccc1)C(=O)N1CCN(c2ccc([N+](=O)[O-])nc2)CC1 [Compound 2]	8.99 µM	32.8 µM	19.5 µM	17.6 µM
C#Cc1cccc(N2CCN(C(=O)[C@H](CCCCNC(=O)C=C)NC(=O)Cc3ccccc3)CC2)n1 [Compound 3, N^α-Phenylacetyl-N^ε-acryloyl-L-lysine-4-(6-ethinylpyridin-2-yl)piperazide]	10.2 µM	> 100 µM	38.4 µM	26.2 µM
C=CC(=O)NCCCC[C@H](NC(=O)Cc1ccccc1)C(=O)N1CCN(c2cccc(-c3cn(CCOCCOCCOCCNC(=O)CCCC[C@@H]4SC[C@@H]5NC(=O)N[C@@H]54)nn3)n2)CC1 [Compound 4, N-(2-(2-(2-(2-(4-(6-(4-(N^6-acryloyl-N^2-(2-phenylacetyl)-L-lysyl)piperazin-1-yl)pyridin-2-yl)-1H-1,2,3-triazol-1-yl)ethoxy)ethoxy)ethoxy)ethyl)-5-((3aS,4S,6aR)-2-oxohexahydro-1H-thieno[3,4-d]imidazol-4-yl)pentanamide]	4.56 µM	> 100 µM	21.8 µM	7.12 µM
